Test results published in patent US20250051283A1, “THERAPEUTIC COMPOUNDS AND METHODS” (priority 2023, published 2025).
Like-named read-outs stand apart in the source and are kept apart here.

Legend:
[1] = test system: EV-D68 US/KY/14-18953 (clade D); assay: Broad-spectrum antiviral activity (Table 1), US/KY/14-18953; assay type: cell-based, Enterovirus D68; conditions: Enterovirus D, EVD68
Procedure: (§1) Cell lines and viruses. Human rhabdomyosarcoma (R.D., ATCC, CCL-136) cells were maintained at 37° C. in a 5% CO2 atmosphere and cultured in Dulbecco's modified Eagle's medium (DMEM) supplemented with 10% fetal bovine serum (FBS) and 1% penicillin-streptomycin antibiotics. The following reagents were obtained through BEI Resources, NIAID, NIH: Human Enterovirus D68, US/MO/14-18949, NR-49130; Enterovirus D68, US/MO/14-18947, NR-49129; Enterovirus D68, US/IL/14-18952, NR-49131; Enterovirus D68, US/KY/14-18953, NR-49132; Enterovirus D68, US/IL/14-18956, NR-49133.
(§2) Antiviral assays. Cells for antiviral assays were seeded and grown overnight at 37° C. in a 5% CO2 atmosphere for ˜90% confluency the next day. For all infections, cells were washed with PBS containing magnesium and calcium and infected with virus diluted in DMEM with 2% FBS and 30 mM MgCl2. Viruses were incubated for at least 1 h at 33° C. in a 5% CO2 atmosphere, followed by the addition of compound as well as 1% penicillin-streptomycin. […] For cytopathic effect (CPE) assays, cells were stained with 66 µg/mL neutral red for 2 h and neutral red uptake was measured at absorbance 540 nm using a Multiskan FC Microplate Photometer (ThermoFisher Scientific). The EC50 and CC50 values were calculated from best-fit dose response curves using GraphPad Prism. […]

[2] = test system: EV-D68 US/IL/14-18952 (clade B2); assay: Broad-spectrum antiviral activity (Table 1), US/IL/14-18952; assay type: cell-based, Enterovirus D68; conditions: Enterovirus D, EVD68
Procedure: as §1, §2

[3] = test system: R.D. cells; assay: Cytotoxicity by neutral red uptake in R.D. cells, no viral infection; assay type: cell-based, Human
Procedure: as §1
(§3) Antiviral assays. Cells for antiviral assays were seeded and grown overnight at 37° C. in a 5% CO2 atmosphere for ˜90% confluency the next day. For all infections, cells were washed with PBS containing magnesium and calcium and infected with virus diluted in DMEM with 2% FBS and 30 mM MgCl2. Viruses were incubated for at least 1 h at 33° C. in a 5% CO2 atmosphere, followed by the addition of compound as well as 1% penicillin-streptomycin. For CC50 measurements, the experiment was performed similarly but excluded viral infection. For cytopathic effect (CPE) assays, cells were stained with 66 µg/mL neutral red for 2 h and neutral red uptake was measured at absorbance 540 nm using a Multiskan FC Microplate Photometer (ThermoFisher Scientific). The EC50 and CC50 values were calculated from best-fit dose response curves using GraphPad Prism. For plaque reduction assays, an 1.2% avicel microcrystalline cellulose (FMC BioPolymer, Philadelphia, PA) overlay was used and cells were stained after 3 days as previously described^26.

[4] = test system: five strains of EV-D68 (B1, B2, and D clades); assay: Broad-spectrum antiviral activity, summary over five EV-D68 strains; assay type: cell-based, Enterovirus D68
Procedure: as §1, §2

[5] = molecular target: EV-D68 2A^pro (Enterovirus D68, UniProt A0A097BW19); assay: FRET-based enzymatic assay of EV-D68 2Apro inhibition; assay type: biochemical
Sequence of EV-D68 2A^pro (A0A097BW19 entry or part of it): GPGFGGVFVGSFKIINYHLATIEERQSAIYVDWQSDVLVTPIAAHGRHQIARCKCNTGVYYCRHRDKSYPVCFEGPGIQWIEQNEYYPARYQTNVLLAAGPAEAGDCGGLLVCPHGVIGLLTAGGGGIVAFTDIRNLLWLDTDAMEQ
Procedure: Protein expression and purification. EV-D68 2A^pro gene from strain US/KY/14-18953 was ordered from Genscript (Piscataway, NJ) in pET28b(+) vector with E. coli codon optimization. 2A^pro gene was subcloned into pE-SUMOstar vector according to the manufacturers protocol. Plasmid encoding WT-2A^pro was transformed into BL21(DE3) competent E. coli cells, and a single colony was picked and used to inoculate 10 mL of L.B. grown supplemented with 50 μg/mL kanamycin at 37° C. at 250 rpm. The 10 mL inoculant was added to 1 L of L.B. with 50 μg/mL kanamycin and grown to an OD600 of 0.8-1.0, cooled to 18° C., then induced using 0.5 mM IPTG. Induced cultures were incubated at 18° C. for an additional 24 h, then harvested and resuspended in lysis buffer (25 mM Tris (pH 7.5); 750 mM NaCl, 2 mM DTT with 0.5 mg/mL lysozyme, 0.5 mM PMSF and 0.02 mg/mL DNase I) and lysed with alternating sonication and French press cycles. The cell debris were removed by centrifugation at 12,000×g for 45 min […]. The supernatant was incubated with Ni-NTA resin for over 2 h at 4° C. on a rotator. The Ni-NTA resin was thoroughly washed with 50 mM imidazole in wash buffer (50 mM Tris (pH 7.5), 150 mM NaCl, and 2 mM DTT); for the SUMO-tagged protein, the protein was directly eluted with 300 mM imidazole; for the nontagged 2A^pro Ni-NTA resin was treated with SUMO Protease 1 to remove the SUMO tag, then 2A^pro was washed off from the column with 10 mM imidazole in wash buffer. The imidazole was removed via dialysis or 10 K molecular weight cut-off centrifugal concentrator spin column. The purity of the protein was confirmed with SDS-PAGE. The protein concentration was determined by classic BCA assay using bovine serum albumin as a standard. EV-D68 3C^pro in pET28b(+) vector was expressed as previously described^10.
Peptide synthesis. The FRET substrate of EV-D68 2A^pro, Dabcyl-KIRIVNT/GPGFGGE-Edans, was synthesized using the Fmoc solid phase synthesis strategy.
Enzymatic assays. The reaction buffer contains 50 mM Tris (pH7.0), 150 mM NaCl, 10% Glycerol, and 2 mM DTT, and the reaction was carried out at 30° C. in Cytation 5 imaging reader (Fisher Scientific) with EX360/40-EM460/40 filter. Reactions were monitored every 90 sec. […] The reaction was initiated by adding 20 μM of FRET substrate, and the reaction was monitored for 2 hours and initial velocity was calculated for the first 30 minutes via linear regression.

[6] = test system: EV-D68 US/MO/14-18947; assay: CPE assay (neutral red) with EV-D68 US/MO/14-18947 in R.D. cells; assay type: cell-based, Enterovirus D68; conditions: CPE assay, EV-D68 US/MO/14-18947 in R.D. cells
Method in brief: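 R.D. cells infected (DMEM, 2% FBS, 30 mM MgCl2) for ≥1 h at 33° C before compound addition; CPE read by neutral red uptake ([…], 2 h, A540), plaque reduction under 1.2% avicel overlay, stained after 3 days. EC50 and CC50 (uninfected cells) from dose-response curve fits.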

[7] = Cytotoxicity by neutral red uptake in R.D. cells, no viral infection; assay type: cell-based, Human; conditions: human, R.D. (rhabdomyosarcoma, ATCC CCL-136) cells, uninfected
Procedure: as §1, §3

[8] = test system: EV-D68 US/MO/14-18947 (clade B1); assay: Broad-spectrum antiviral activity (Table 1), US/MO/14-18947; assay type: cell-based; conditions: Enterovirus D, EVD68
Procedure: as §1, §2

| SMILES | EC50 [1] [µM] | EC50 [2] [µM] | CC50 [3] [µM] | EC50 ([4]; Enterovirus D, EVD68, read-out: EC50 values over all five strains) [µM] | fold improvement of EC50 compared to telaprevir ([4]; five EV-D68 strains, versus telaprevir) | enzymatic inhibition, in words, relative to the named comparator [5] | antiviral activity, in words, relative to the named comparator [6] | EC50 ([2]; EV-D68 US/IL/14-18952 (clade B2), read-out: EC50) [µM] | CC50 [7] [µM] | EC50 [8] [µM] |
| --- | --- | --- | --- | --- | --- | --- | --- | --- | --- | --- |
| CCC[C@H](NC(=O)[C@@H]1[C@H]2CCC[C@H]2CN1C(=O)[C@@H](NC(=O)[C@@H](NC(=O)c1cnccn1)C1CCCCC1)C(C)(C)C)C(=O)C(=O)NC1CC1 [Telaprevir, reference compound] | 0.209 ± 0.0371 | 0.828 ± 0.107 | 83.2 |  |  |  |  |  |  |  |
| CC(C)(C)C(NC(=O)CC12CC3CC(CC(C3)C1)C2)C(=O)N1CC2CCCC2C1C(=O)NC(C(=O)C(=O)NC1CC1)C1CCCCC1 [Jun11762, (1S,3aR,6aS)-2-((S)-2-(2-((3S,5S,7S)-adamantan-1-yl)acetamido)-3,3-dimethylbutanoyl)-N—((S)-1-cyclohexyl-3-(cyclopropylamino)-2,3-dioxopropyl)octahydrocyclopenta[c]pyrrole-1-carboxamide] |  |  |  | 0.043 to 0.269 | 3.1-4.6 fold | comparable enzymatic inhibition and antiviral activity as Jun8861 | comparable enzymatic inhibition and antiviral activity as Jun8861 | 0.269 ± 0.0219 | > 150 | 0.043 ± 0.0033 |
